Test results published in patent publication US20240208901A1, “Deuterated 3,3'-Diselenodipropionic Acid (DSePA) and Its Use as an Anticancer or Radioprotective Agent” (Secretary, Department of Atomic Energy, priority 2022, published 2024).

Experiments:
Format in all cases: cell-based, human
[1] = test system: A549 cells; experiment: Clonogenic assay in A549 cells; settings: Homo sapiens, 168 h, seven days treatment, read-out: IC50 to inhibit growth (survival fraction)
Experimental: (§1) Further, clonogenic assay is considered as the gold standard method for evaluating the anticancer activity of any compound and is also a good indicator of the in vivo efficacy of any anticancer compound. Therefore, the therapeutic index of DSePA and D-DSePA in A549/WI-38 cells was also validated by employing the clonogenic assay. For this, A549/WI-38 cells were treated with the varying concentrations (0.1-2 μM)/(1-500 μM) of DSePA/D-DSePA for seven days and the survival fraction was calculated by counting the number of surviving clones (FIG. 11A). The plot of survival fraction verses the concentration of DScPA/D-DSCPA was used to estimate the IC50 of above compounds to inhibit the growth of A549/WI-38 cells. […] This clearly confirmed that deuteration of DScPA reduced its toxicity in normal cells without compromising its efficacy in cancer cells. […]
(§2) Clonogenic assay—Clonogenic assay was performed according to the method reported previously. […] After 7 days, colonies were fixed with absolute methanol for 5 min, stained with 0.5% crystal violet for 5 min, washed with distilled water to remove excess stain and counted manually under a stereo microscope. […] The plating efficiency and the survival fraction under irradiated and drug treated conditions were calculated using following formulae: […]
(§3) The plating efficiency of A549 and WI38 cells was calculated by seeding ˜300 and ˜500 cells respectively. […]

[2] = test system: WI-38 cells; experiment: Clonogenic assay in WI-38 cells; settings: Homo sapiens, 168 h, seven days treatment, read-out: IC50 to inhibit growth (survival fraction)
Experimental: as §1, §2, §3

[3] = test system: A549 cells; experiment: Clonogenic assay, combinatorial treatment with γ-irradiation in A549 cells
Experimental: Further, clonogenic assay is considered as the gold standard method for evaluating the anticancer activity of any compound and is also a good indicator of the in vivo efficacy of any anticancer compound. Therefore, the therapeutic index of DSePA and D-DSePA in A549/WI-38 cells was also validated by employing the clonogenic assay. For this, A549/WI-38 cells were treated with the varying concentrations (0.1-2 μM)/(1-500 μM) of DSePA/D-DSePA for seven days and the survival fraction was calculated by counting the number of surviving clones (FIG. 11A). The plot of survival fraction verses the concentration of DScPA/D-DSCPA was used to estimate the IC50 of above compounds to inhibit the growth of A549/WI-38 cells. […] This clearly confirmed that deuteration of DScPA reduced its toxicity in normal cells without compromising its efficacy in cancer cells. Since anticancer agents are intended to be used in combination with radiation, DSePA/D-DSePA at a treatment concentration of 0.5 μM (dose close to IC50 as determined by clonogenic assay) was combined with varying absorbed doses (2-8 Gy) of γ-irradiation and the effect of combinatorial treatment on the viability of A549 cells was determined by clonogenic assay (FIG. 12A & 12B). For this, A549 cells exposed to the varying absorbed doses (2-8 Gy) of γ-radiation were immediately treated with DScPA/D-DScPA and cultured for seven days prior to clonogenic assay. […] The D10 value of the combinatorial treatment involving DScPA estimated was 4.5 Gy (FIG. 12B). Similarly, D10 value of the combinatorial treatment involving D-DSePA estimated was 4 Gy. From these values, the dose modification factor (DMF or the ratio of the D10 of combinatorial treatment to that of D10 of radiation) of DScPA and D-DScPA estimated was 0.87±0.01 and 0.83±0.02 respectively. […] While the objective of radiotherapy is to achieve tumor control, it is also known to cause normal tissue toxicity. Previously, DSePA has been reported to protect normal cells from lethal effects of γ-radiation. Thus radio-protective activity of D-DSePA was compared with DScPA in terms of their abilities to protect non-cancerous lung fibroblast (WI-38) cells against γ-irradiation induced cell death. For this, WI-38 cells were pretreated with DSePA/D-DScPA for 24 h at an identical concentration of 0.5 μM (close to IC50 required to inhibit growth of A549 lung cancer cells by clonogenic assay) and then exposed to varying doses (2-12 Gy) of γ-irradiation. The survival of cells against radiation exposure was estimated by clonogenic assay and the dose response curve was prepared in the presence and absence of drug (DSePA/D-DScPA) (FIG. 12C & 12D). By using this dose response curve, the dose modification factor (DMF or the ratio of the D10 of radiation plus drug and D10 of radiation alone) of DSePA and D-DSePA estimated was 1.12±0.03 and 1.16±0.05 respectively.
as §2, §3

[4] = test system: WI-38 cells; experiment: Clonogenic assay, radioprotection of WI-38 cells against γ-irradiation; settings: WI-38 cells pretreated 24 h with 0.5 μM drug, γ-irradiation 2-12 Gy, clonogenic assay
Experimental: Further, clonogenic assay is considered as the gold standard method for evaluating the anticancer activity of any compound and is also a good indicator of the in vivo efficacy of any anticancer compound. Therefore, the therapeutic index of DSePA and D-DSePA in A549/WI-38 cells was also validated by employing the clonogenic assay. For this, A549/WI-38 cells were treated with the varying concentrations (0.1-2 μM)/(1-500 μM) of DSePA/D-DSePA for seven days and the survival fraction was calculated by counting the number of surviving clones (FIG. 11A). The plot of survival fraction verses the concentration of DScPA/D-DSCPA was used to estimate the IC50 of above compounds to inhibit the growth of A549/WI-38 cells. […] This clearly confirmed that deuteration of DScPA reduced its toxicity in normal cells without compromising its efficacy in cancer cells. Since anticancer agents are intended to be used in combination with radiation, DSePA/D-DSePA at a treatment concentration of 0.5 μM (dose close to IC50 as determined by clonogenic assay) was combined with varying absorbed doses (2-8 Gy) of γ-irradiation and the effect of combinatorial treatment on the viability of A549 cells was determined by clonogenic assay (FIG. 12A & 12B). For this, A549 cells exposed to the varying absorbed doses (2-8 Gy) of γ-radiation were immediately treated with DScPA/D-DScPA and cultured for seven days prior to clonogenic assay. […] The D10 value of the combinatorial treatment involving DScPA estimated was 4.5 Gy (FIG. 12B). […]
as §2, §3

SMILES: O=C(O)CC[Se][Se]CCC(=O)O [DSePA, 3,3′-diselenodipropionic acid]
- IC50 [1]: 1.2 ± 0.01 µM
- IC50 [2]: 17.9 ± 0.01 µM
- dose modification factor (DMF, D10 of combinatorial treatment / D10 of radiation) ([3]; 0.5 μM drug immediately after γ-radiation (2-8 Gy)): 0.87±0.01
- D10 value (decimal reduction dose) of the combinatorial treatment ([3]; γ-radiation 2-8 Gy then 0.5 μM drug immediately, seven days, radiation alone D10 5 Gy): 4.5 Gy
- dose modification factor (DMF, D10 of radiation plus drug / D10 of radiation alone) [4]: 1.12±0.03
